According to US20030157502A1, “Chemotherapeutant screening method” (priority 1999, published 2003):
Like-named read-outs stand apart in the source and are kept apart here. Starred links: 1 amine or outer side, 2 acyl side, 3 side chain; linkers in the order of their positions; H or OH if unused. Positions of bridges follow the written chain, without caps; N, C: chain ends. Non-standard residues stand in square brackets, D forms with d. Residues, ends and D or L forms follow the SMILES beside them. Chains are numbered I, II in the order given. Actinocin(9to1) = Cc1c2oc3c(C)ccc(C(=O)[*:1])c3nc-2c(C(=O)[*:2])c(N)c1=O; NMeV = CN[C@H](C(=O)O)C(C)C; Sar = CNCC(=O)O

Experiments:
HepG2 cells = experiment: Apoptosis by PI exclusion and forward/side scatter (FSC/SSC); assay type: cell-based; settings: 100 μg/ml 5-FU, after 48 hours
Experimental: FIG. 1: Chemotherapeutic agents effect CD95-mediated death in HepG2 cells HepG2 cells were cultured almost up to confluence and then incubated with 100 μg/ml 5-FU over the indicated periods in the presence of either an isotype-adapted control antibody or the anti-CD95L antibody NOK-1 (50 μg/ml). The same experiment was carried out with the addition of CD95-Fc (50 μg/ml). Apoptosis was determined by PI exclusion and measurement of the forward/side scatter (FSC/SSC). The data shown are average values with standard deviations from three samples.
Following the corresponding treatment, the cells were trypsinated with 1% trypsin-EDTA for 5 min., washed twice with PBS and stained using 2.5 μg/ml propidium iodide (PI; Sigma). The stain uptake was measured by means of a “FACScan” cytometer (Becton Dickinson GmbH, Heidelberg, Germany) using the “CellQuest” Software. Changes in the forward/side scatter (FSC/SSC) of the cell population were evaluated as well. For quantifying the DNA fragmentation the supernatants were centrifuged at 200×g, the cells were trypsinated and washed as indicated above. […] The nuclei were then analyzed as regards their DNA content by means of flow cytometry (Nicoletti et al., Journal of Immunological Methods 139 (1991), 271). […]

CD95L-mRNA [1] = assay type: cell-based, human; settings: for upward regulation of CD95L-mRNA: HepG2 (wt p53) cells; for effect on transcription or translation of the housekeeping gene β-actin: subtoxic concentrations
CD95L-mRNA [2] = experiment: CD95L-mRNA expression by RT-PCR in Hep3B cells; assay type: cell-based, human; settings: Hep3B (p53 -/-) cells
SKW6.4 cells = experiment: 51Cr release assay, Hep3B effector cells and SKW6.4 target cells; assay type: cell-based, human; settings: Hep3B treated with 100 μg/ml 5-FU 48 hours before incubation
Experimental: FIG. 3: The treatment with chemotherapeutic agents results in an upward regulation of functional CD95L A ^51Cr release assay with Hep3B cells as effectors and SKW6.4 cells as target was used. Hep3B cells were cultured in 96-well plates treated with 5-FU. After 48 hours, the chemotherapeutic agents were removed from the culture medium and ^51Cr-labeled SKW6.4 cells were added with either a control antibody or the anti-CD95L antibody NOK-1. Following incubation overnight, the supernatants were measured in a gamma counter. Relative lysis was calculated as indicated in Example 1. E/T is the ratio between effector cells and target cells. Every series of concentration was carried out threefold. The diagram represents an experiment from a series of independent experiments having the same result.
CD95L-mediated cytotoxicity induced by chemotherapy was studied. Hep3B cells (effector cells) were seeded into 96-well plates and treated with chemotherapeutic agents for 48 hours. […] After 12 to 16 hours, 100 μl supernatant of each well were collected and measured in a gamma counter. The specific lysis was calculated in accordance with formula L=(E−S)/(T−S), E representing the gamma counts of the unknown sample, S being the spontaneous lysis of the labeled target cells in the medium without effector cells, and T representing the maximum release of the target cells kept in 2 N HCl. […]

CD95L promoter = CD95L promoter luciferase reporter assay in transiently transfected Hep3B cells; assay type: cell-based, human; settings: for effect of the combination on activation of the CD95L promoter: 5-FU plus etoposide, 48 hours
Experimental: Every bar represents the calculated value from treated/untreated cells. The transfection efficiency in A and B was monitored by cotransfection of a renilla Luciferase construct controlled by a basal promoter. […] B: Titration of 5-FU. Hep3B cells were transiently transfected with the −36/+100 promoter construct. […] The cells were lyzed and the luciferase activity was determined.
The cotransfected cells were then treated with 100 μg/ml 5-FU for 48 hours or not treated. The transfection efficiency was normalized by either cotransfection of an expression vector for chloramphenicol transferase (CAT) or renilla luciferase (both controlled by a basal promoter). The luciferase activity was measured using the “dual luciferase” assay (Promega company) in accordance with the manufacturer's instructions, and the CAT activity was determined by means of a commercially available CAT ELISA. Average values (with standard deviation) from different independent experiments are shown. B: “Dual luciferase” assay with Hep3B cells cotransfected with the described CD95L promoter construct and a renilla-luciferase expression vector (as a control for the transfection efficiency). The cells were collected at the indicated times. In addition, the protein content of the transfected cells was determined. The data are average values (with standard deviation) from three samples of a representative experiment. Four independent experiments were carried out.
Hep3B cells were transfected with the −36/+100 construct (CD95L prom wt) or the APX4 construct (mutated −36/+100 CD95L.luc; Cd95L prom mut). The transfection efficiency was monitored by cotransfection with renilla luciferase. Following transfection the cells were treated with 5-FU (100 μg/ml) for 48 hours. The luciferase activity was measured and the multiplication of induction was calculated.
One day before the transfection, the cells were plated out with a density of 0.6×10^6/9 cm Petri dishes. The medium was exchanged two hours before the transfection. The transfection was carried out by means of the method based on calcium phosphate precipitation. In summary, 5 to 40 μg DNA were diluted in 500 μl of a calcium chloride solution. The DNA/calcium chloride mixture was added drop-wise to 500 μl HBS. Precipitation was carried out at room temperature for 20 min., and then the precipitation mixture was added to the culture medium. The precipitate was allowed to stay on the cells for 12 to 24 hours. Thereafter, the cells were shock-treated using 16% glycerin in full medium for 3 min. Following three wash steps using PBS, the cells were cultured in medium supplemented with 20% FCS for at least six hours. Finally, the cells were distributed over 6-well plates, and the chemotherapeutic treatment was started for different periods.
After three wash steps in PBS, the cells were lyzed in 200 μl passive lysis buffer (Promega). Following 20 minutes of incubation at room temperature, the cells were scratched off the plates. The lyzates were subjected to two freeze/thaw cycles and then cell debris was removed by centrifugation.

c-Jun [3] = experiment: c-Jun immunofluorescence in Hep3B cells; assay type: cell-based, human; settings: 5-FU 100 μg/ml for 40 hours
Experimental: (§1) Thereafter, the cells were either not treated (A) or treated with 5-FU (100 μg/ml) for 40 hours (B), fixed and stained as described. C+D: Human primary hepatocytes were isolated as described in Example 1 and seeded onto culture dishes. Thereafter, the cells were either not treated (C) or treated with 5-FU (50 μg/ml) for 40 hours (D), fixed and stained with an antibody specific to c-Jun.
Cultured Hep3B cells or freshly isolated human primary hepatocytes were plated onto Lab-Tek™ chamber slides (Renner GmbH, Darmstadt, Germany). Following culturing over a period of at least two days, the cells were treated with chemotherapeutic agents. Thereafter, fixation in methanol/acetone (5 min. or 10 sec. at −20° C.) was carried out. Then, the cells were initially incubated at 37° C. for 1 hour with the specific primary antibody against human c-Jun (Santa Cruz GmbH, Heidelberg, Germany), and after three wash steps using PBS, the cells were covered with fluorescein-isothiocyanate-conjugated goat anti-rabbit IgG (Dianova, Hamburg, Germany) for 1 hour. Non-specific staining was monitored by incubation with mouse or rabbit immunoglobulins in place of the specific primary antibody or by blocking the primary antibody with the immunogenic peptide. The slides were covered with cover glasses and evaluated by means of a fluorescence microscope. […]

c-Jun [4] = experiment: c-Jun immunofluorescence in primary human hepatocytes; assay type: cell-based; settings: 5-FU 50 μg/ml for 40 hours
Experimental: as §1
Primary human hepatocytes were obtained by means of a 2-step perfusion technique from healthy liver tissue of patients undergoing partial liver resection. For this purpose, a cannula was introduced into a blood vessel of the removed liver tissue and it was perfused with Ca-free and Mg-free “Hank's balanced salt solution (HBSS; Gibco BRL) containing 0.5 mM EDTA and 50 mM HEPES for 15 to 20 min. […] The viability was determined by means of the trypan blue exclusion method. […]
Cultured Hep3B cells or freshly isolated human primary hepatocytes were plated onto Lab-Tek™ chamber slides (Renner GmbH, Darmstadt, Germany). […] Non-specific staining was monitored by incubation with mouse or rabbit immunoglobulins in place of the specific primary antibody or by blocking the primary antibody with the immunogenic peptide. The slides were covered with cover glasses and evaluated by means of a fluorescence microscope. […]

| Molecule | upward regulation of CD95L-mRNA (CD95L-mRNA [1]) | upward regulation of CD95L-mRNA (CD95L-mRNA [2]) | effect of the combination on activation of the CD95L promoter (CD95L promoter; Hep3B cells) | effect on the upward regulation of CD95L following treatment with chemotherapeutic agents (CD95L-mRNA [1]) | effect on transcription or translation of the housekeeping gene β-actin (CD95L-mRNA [1]) | also measured |
| --- | --- | --- | --- | --- | --- | --- |
| O=c1[nH]cc(F)c(=O)[nH]1 [5-FU, 5-fluorouracil] | regulate upward | regulate upward | synergistic effect |  |  | apoptosis rate (HepG2 cells): 43%; killing of CD95-bearing SKW6.4 cells by treated Hep3B cells (SKW6.4 cells): significant killing; inducibility of CD95L promoter luciferase constructs (-1204/+100 to -36/+100) (CD95L promoter; Hep3B cells transiently transfected): inducible; inducibility of the AP-1-mutated -36/+100 reporter construct (CD95L promoter; Hep3B cells, 100 μg/ml 5-FU, 48-hour treatment): almost fully eliminated; time of maximum activation of the -36/+100 construct (CD95L promoter; Hep3B cells, -36/+100 luciferase construct): 64 h; response of the -36/+19 construct (lacks AP-1 site) (CD95L promoter; Hep3B cells, incubation up to 64 hours): did not respond; AP-1 (c-Jun) nuclear staining (c-Jun [3]): widely accumulated AP-1 within the nucleus; AP-1 (c-Jun) nuclear staining (c-Jun [4]): intensive nuclear reactivity |
| Cc1c2oc3c(C)ccc(C(=O)N[C@@H]4C(=O)N[C@H](C(C)C)C(=O)N5CCC[C@H]5C(=O)N(C)CC(=O)N(C)[C@@H](C(C)C)C(=O)O[C@@H]4C)c3nc-2c(C(=O)N[C@@H]2C(=O)N[C@H](C(C)C)C(=O)N3CCC[C@H]3C(=O)N(C)CC(=O)N(C)[C@@H](C(C)C)C(=O)O[C@@H]2C)c(N)c1=O [actinomycin C1] (I: T[dV]P[Sar][NMeV] / II: T[dV]P[Sar][NMeV]; ester I:1-I:C, II:1-II:C; linker I:N-II:N via Actinocin(9to1)) |  |  |  | reduced efficiently | no effect |  |
| C[C@@H]1C[C@@H]([C@H](O)CC2CC(=O)NC(=O)C2)C(=O)[C@@H](C)C1 [cycloheximide] |  |  |  | reduced efficiently | no effect |  |
| COc1cc([C@@H]2c3cc4c(cc3[C@@H](O[C@@H]3O[C@@H]5CO[C@@H](C)O[C@H]5[C@H](O)[C@H]3O)[C@H]3COC(=O)[C@H]23)OCO4)cc(OC)c1O [etoposide] | regulate upward | regulate upward | synergistic effect |  |  |  |
| bleomycin | regulated upward | regulated upward |  |  |  |  |
